These results are taken from patent US20100298377A1, “NOVEL SUBSTITUTED INDAZOLES, THE PREPARATION THEREOF AND USE OF SAME IN THERAPEUTICS” (SANOFI-AVENTIS, priority 2007, published 2010).

pIC50: −log10 of the molar value. Structures can show the parent of a compound that is named as a salt. Some results are limits rather than exact numbers.

One data set addresses AKT1 (Homo sapiens, UniProt P31749, S473D). Kind of data set: Determination of the IC50 for AKT1 (HTRF). It is filed as biochemical. The conditions noted are these: AKT1 without PH domain, activated by PDK1. As for the experimental part: Determination of the IC50 for AKT1
The inhibitory potential of the compounds is evaluated by HTRF, a time-resolved fluorescence technique based on non-radiative energy transfer (FRET). […] This phosphorylation allows the kinase activity of AKT1 to be activated.
Starting with a 10 mM solution of inhibitors, 3 μl are taken and placed in a 96-well polypropylene plate containing 27 μl of 100% DMSO. The various test compounds are diluted in cascade by taking 15 μl of compound, to which are added 30 μl of 100% DMSO.
The various reaction components are added in the following manner:
Next, 10 μl of the inhibitor solution are added. Finally, the reaction is initiated by adding 10 μl of a solution containing both 100 μM of ATP and 10 μM of biotinylated peptide. The sequence of this peptide is as follows: biot-[…] (reference Neosystem SP000560). The plate is then covered with a plastic film, agitated and finally incubated at RT for 30 minutes. […] After incubation overnight at 4° C., the plate is read using an Ultra evolution spectrophotometer from Tecan. […] All the tests are performed in duplicate and the mean of the two tests is calculated.
For each point, a delta F is calculated in the following manner:
R(Ratio)=counts665 nm/counts620 nm
ΔF % is calculated by the Tecan Ultra Evolution machine.
For orientation: TR-FRET usually uses a lanthanide donor and a delayed reading to cut background.

Chain of AKT1 (P31749 118-480 S473D limits assumed): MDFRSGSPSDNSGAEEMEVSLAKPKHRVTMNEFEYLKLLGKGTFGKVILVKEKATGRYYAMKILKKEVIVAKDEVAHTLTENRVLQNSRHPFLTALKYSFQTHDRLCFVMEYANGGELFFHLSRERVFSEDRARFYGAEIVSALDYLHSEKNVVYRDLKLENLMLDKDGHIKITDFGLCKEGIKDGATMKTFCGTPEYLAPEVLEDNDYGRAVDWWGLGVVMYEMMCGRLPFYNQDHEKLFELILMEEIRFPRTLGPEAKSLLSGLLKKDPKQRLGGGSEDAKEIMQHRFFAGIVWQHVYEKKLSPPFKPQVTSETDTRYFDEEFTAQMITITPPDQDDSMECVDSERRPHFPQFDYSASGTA

Take `C=CCN1CCCC[C@H]1[C@@H](NC(=O)Nc1ccc2[nH]ncc2c1)c1ccccc1` [Ex 10, 1-{(S)-(Phenyl)[(2S)-1-allylpiperid-2-yl]methyl}-3-(1H-indazol-5-yl)urea]: the melting point stood at 195 °C. This molecule gave a pIC50 against AKT1 of 6.30 to 7.00.
`CN1CCCCC1C(NC(=O)Nc1ccc2[nH]nc(C#Cc3cccnc3)c2c1)c1ccccc1` (as salt: fumaric acid salt) [Ex 25, 1-[(1-Methylpiperid-2-yl)(phenyl)methyl]-3-[3-(pyrid-3-ylethynyl)-1H-indazol-5-yl]urea((S,2S),(R,2R))] had a melting point of 230 °C.
Same read-out and setting: under `O=C(Nc1ccc2[nH]nc(C#Cc3ccccc3)c2c1)N[C@@H](c1ccc(Cl)c(Cl)c1)[C@@H]1CCCCN1` (as salt: fumaric acid salt) [Ex 26, 1-{(S)-(3,4-Dichlorophenyl)[(2S)-piperid-2-yl]methyl}-3-[3-(phenylethynyl)-1H-indazol-5-yl]urea] stands 160 °C.
Still for that read-out and setting: under `CN1CCCCC1C(c1ccccc1)n1ccn(-c2ccc3[nH]ncc3c2)c1=O` (as salt: fumarate) [Ex 30, 1-(1H-Indazol-5-yl)-3-[(1-methylpiperid-2-yl)phenylmethyl]-1,3-dihydroimidazol-2-one((S,2S),(R,2R))] stands 231 to 232 °C; under `Nc1n[nH]c2ccc(NC(=O)N[C@@H](c3ccc(Cl)c(Cl)c3)[C@@H]3CCCCN3)cc12` (as salt: hydrochloride) [Ex 29, 1-(3-Amino-1H-indazol-5-yl)-3-{(S)-(3,4-dichlorophenyl)[(2S)-piperid-2-yl]methyl}urea], 214 °C; under `CN1CCCCC1C(OC(=O)Nc1ccc2[nH]ncc2c1)c1cc(F)cc(Cl)c1` (stereo not drawn) (as salt: hydrochloride) [Ex 36, (3-Chloro-5-fluorophenyl)(1-methylpiperid-2-yl)methyl 1H-indazol-5-ylcarbamate], 172 °C.
On the same count and under the same terms, under `CN1CCCCC1C(NC(=O)Nc1ccc2[nH]nc(-c3ccccn3)c2c1)c1ccccc1` (as salt: fumaric acid salt) [Ex 15, 1-[(1-Methylpiperid-2-yl)(phenyl)methyl]-3-(3-pyrid-2-yl-1H-indazol-5-yl)urea((S,2S),(R,2R))] stands more than 250 °C.
In turn, `CN1CCCCC1C(NC(=O)Nc1ccc2[nH]ncc2c1)c1cc(F)cc(Cl)c1` (stereo not drawn) (as salt: hydrochloride) [Ex 11, 1-[(3-Chloro-5-fluorophenyl)(1-methylpiperid-2-yl)methyl]-3-(1H-indazol-5-yl)urea] displayed a melting point of 192 °C.
The same measure, in the same setting: under `CN1CCCCC1C(NC(=O)Nc1ccc2[nH]nc(C#Cc3ccc(F)cc3)c2c1)c1ccccc1` (as salt: fumaric acid salt) [Ex 24, 1-{3-[(4-Fluorophenyl)ethynyl]-1H-indazol-5-yl}-3-[(1-methylpiperid-2-yl)(phenyl)methyl]urea((S,2S),(R,2R))] stands 244 °C.
With `CN1CCCCC1C(NC(=O)Nc1ccc2[nH]nc(CCc3ccccc3)c2c1)c1ccccc1` (as salt: fumaric acid salt) [Ex 27, 1-[(1-Methylpiperid-2-yl)(phenyl)methyl]-3-[3-(2-phenylethyl)-1H-indazol-5-yl]urea((S,2S),(R,2R))], the melting point worked out at 205 °C.
On the same count and under the same terms, under `CN1CCCCC1C(NC(=O)Nc1ccc2[nH]nc(NC(=O)c3ccccc3)c2c1)c1ccccc1` (as salt: fumarate) [Ex 28, N-[5-({[(1-Methylpiperid-2-yl)(phenyl)methyl]carbamoyl}amino)-1H-indazol-3-yl]benzamide((S,2S),(R,2R))] stands 235 °C.
For the molecule `CN1CCCCC1C(NC(=O)Nc1ccc2[nH]nc(-c3ccncc3)c2c1)c1ccccc1` (as salt: fumaric acid salt) [Ex 13, 1-[(1-Methylpiperid-2-yl)(phenyl)methyl]-3-(3-pyrid-4-yl-1H-indazol-5-yl)urea((S,2S),(R,2R))], the melting point worked out at 205 °C.
The same measure, in the same setting: under `O=C(Nc1ccc2[nH]ncc2c1)N[C@@H](c1cc(F)cc(Cl)c1)[C@@H]1CCCCN1` (as salt: hydrochloride) [Ex 3, 1-{(S)-(3-Chloro-5-fluorophenyl)[(2S)-piperid-2-yl]methyl}-3-(1H-indazol-5-yl)urea] stands 208 °C.
The same measure, in the same setting: under `CN1CCCCC1C(NC(=O)Nc1cc(F)c2[nH]nc(N)c2c1)c1ccccc1` (as salt: fumaric acid salt) [Ex 20, 1-(3-Amino-7-fluoro-1H-indazol-5-yl)-3-[(1-methylpiperid-2-yl)(phenyl)methyl]urea((S,2S),(R,2R))] stands 221 to 222 °C; under `CN1CCCCC1C(NC(=O)Nc1cc(F)c2[nH]ncc2c1)c1ccccc1` (as salt: fumaric acid salt) [Ex 21, 1-(7-Fluoro-1H-indazol-5-yl)-3-[(1-methylpiperid-2-yl)(phenyl)methyl]urea((S,2S),(R,2R))], 224 to 227 °C; under `Cc1n[nH]c2ccc(NC(=O)NC(c3ccccc3)C3CCCCN3C)cc12` (as salt: fumaric acid salt) [Ex 18, 3-Methyl-5-({[(1-methylpiperid-2-yl)(phenyl)methyl]carbamoyl}amino)-1H-indazole ((S,2S),(R,2R))], 200 to 201 °C.
Consider `CN1CCCCC1C(NC(=O)Nc1ccc2[nH]nc(C#Cc3ccccc3)c2c1)c1ccccc1` (as salt: fumaric acid salt) [Ex 23, 1-[(1-Methylpiperid-2-yl)(phenyl)methyl]-3-[3-(phenylethynyl)-1H-indazol-5-yl]urea((S,2S),(R,2R))], for which the melting point was found to be 227 °C.
`CN1CCCCC1C(NC(=O)Nc1ccc2[nH]nc(-c3cccnc3)c2c1)c1ccccc1` [Ex 14, 1-[(1-Methylpiperid-2-yl)(phenyl)methyl]-3-(3-pyrid-3-yl-1H-indazol-5-yl)urea((S,2S),(R,2R))] showed a pIC50 on AKT1 of more than 7.00.
As to `CN1CCCCC1C(NC(=O)Nc1ccc2[nH]nc(-c3cccnc3)c2c1)c1ccccc1` (as salt: fumaric acid salt) [Ex 14, 1-[(1-Methylpiperid-2-yl)(phenyl)methyl]-3-(3-pyrid-3-yl-1H-indazol-5-yl)urea((S,2S),(R,2R))], the melting point stood at 210 °C.
Same read-out and setting: under `S=C(Nc1ccc2[nH]ncc2c1)N[C@@H](c1ccc(Cl)c(Cl)c1)[C@@H]1CCCCN1` (as salt: fumarate) [Ex 31, 1-{(S)-(3,4-Dichlorophenyl)[(2S)-piperid-2-yl]methyl}-3-(1H-indazol-5-yl)thiourea] stands 145 °C.
On the same count and under the same terms, under `CN1CCCCC1C(NC(=O)Nc1ccc2[nH]nc(-c3ccc(S(N)(=O)=O)cc3)c2c1)c1ccccc1` (as salt: fumaric acid salt) [Ex 12, 4-[5-({[(1-Methylpiperid-2-yl)(phenyl)methyl]carbamoyl}amino)-1H-indazol-3-yl]benzenesulfonamide((S,2S),(R,2R))] stands 220 °C; under `O=C(Nc1ccc2[nH]ncc2c1)O[C@@H](c1cc(F)cc(Cl)c1)[C@@H]1CCCCN1` (as salt: hydrochloride) [Ex 35, (S)-(3-Chloro-5-fluorophenyl)[(2S)-piperid-2-yl]methyl 1H-indazol-5-ylcarbamate], 226 °C.
The same measure, in the same setting: under `O=C(Nc1ccc2[nH]ncc2c1)OC(c1cc(Cl)cc(Cl)c1)C1CCCCN1` (as salt: hydrochloride) [Ex 34, (3,5-Dichlorophenyl)[piperid-2-yl]methyl 1H-indazol-5-ylcarbamate((S,2S),(R,2R))] stands 220 °C.
Molecule `CN1CCCCC1C(NC(=O)Nc1cc(F)c2[nH]nc(NC(=O)c3ccccc3)c2c1)c1ccccc1` [Ex 19, N-[7-Fluoro-5-({[(1-methylpiperid-2-yl)(phenyl)methyl]carbamoyl}amino)-1H-indazol-3-yl]benzamide((S,2S),(R,2R))] gave a pIC50 against AKT1 of 5.70 to 6.30.
`CN(C(=O)NC(c1ccccc1)C1CCCCN1C)c1ccc2[nH]ncc2c1` (as salt: fumaric acid salt) [Ex 33, 1-(1H-Indazol-5-yl)-1-methyl-3-[(1-methylpiperid-2-yl)(phenyl)methyl]urea((S,2S),(R,2R))]: the melting point amounted to 205 °C.
Still for that read-out and setting: under `CN1CCCCC1C(NC(=O)Nc1cc(F)c2[nH]nc(NC(=O)c3ccccc3)c2c1)c1ccccc1` (as salt: fumaric acid salt) [Ex 19, N-[7-Fluoro-5-({[(1-methylpiperid-2-yl)(phenyl)methyl]carbamoyl}amino)-1H-indazol-3-yl]benzamide((S,2S),(R,2R))] stands 164 °C.
The same measure, in the same setting: under `CN1CCCCC1C(c1ccccc1)N(C)C(=O)Nc1ccc2[nH]ncc2c1` (as salt: fumaric acid salt) [Ex 32, 3-(1H-Indazol-5-yl)-1-methyl-1-[(1-methylpiperid-2-yl)phenylmethyl]urea((S,2S),(R,2R))] stands 194 °C.
`CN1CCCCC1C(NC(=O)Nc1ccc2[nH]nc(-c3nc4ccccc4[nH]3)c2c1)c1ccccc1` (as salt: fumaric acid salt) [Ex 17, 1-[3-(1H-Benzimidazol-2-yl)-1H-indazol-5-yl]-3-[(1-methylpiperid-2-yl)(phenyl)methyl]urea((S,2S),(R,2R))]: the melting point amounted to 250 °C.
The same measure, in the same setting: under `O=C(Nc1ccc2[nH]ncc2c1)O[C@@H](c1ccc(Cl)c(Cl)c1)[C@@H]1CCCCN1` (as salt: hydrochloride) [Ex 38b, (S)-(3,4-Dichlorophenyl)[(2S)-piperid-2-yl]methyl 1H-indazol-5-ylcarbamate] stands 194 °C.

Usually pIC50 stands for the negative decadic logarithm of the IC50, by convention in mol/L. A higher pIC50 goes with a small IC50. A word on the melting point: it is the temperature of the solid-liquid transition.
